Source: patent publication US10132796B2, “Method for detecting and quantifying a target molecule in a tissue” (IMABIOTECH, priority 2011, dated 2018)

Assay: Quantification of propranolol in a treated mouse kidney by MALDI mass spectrometry imaging
Type: in vivo
Conditions: mouse treated with 7.5 mg/kg propranolol, sacrificed 20 minutes post-administration, kidney slices 20 μm, calibration curve from reconstituted kidney
Description: A mouse kidney treated with 7.5 mg/kg of propranolol, and sacrificed 20 minutes post-administration, is taken.
Three 20 μm thick tissue slices are produced from the kidney and are each deposited on a support (slide ITO).
MALDI DHB matrix (40 mg/ml methanol/TFA 0.1% 1/1) is sprayed using a robotized system (SunCollect) onto the slices.
Each slice is analysed by mass spectrometry imaging, using an Autoflex speed LRF (Bruker, Daltonics). The average intensity of the peaks of the mass spectrum of the propranolol (m/z 260.2) is computed, by once again using a number of ROIs on each slice, all dimensions being the same.
The average intensity value obtained is 19633.3.
The propranolol concentration in the kidney is quantified using the calibration curve equation (FIG. 2), by including the average intensity value obtained on said straight line. The propranolol here is in a concentration of 5.9 μg/g of tissue.

CC(C)NCC(O)COc1cccc2ccccc12 (stereo not shown) [propranolol]
propranolol concentration in the kidney: 5.9 μg/g of tissue
